Drawing on paper PMC9363231, “High‐resolution analysis of individual spike peptide‐specific CD4 ^+ T‐cell responses in vaccine recipients and COVID‐19 patients” (Clinical & Translational Immunology, 2022), this text covers IC50 for eight compounds.

Among the targets are HLA-DRB1*15:01 (Homo sapiens, UniProt P01903+P01911); HLA-DRB1*04:01 (Homo sapiens, UniProt P01903+P01911, A100K/A169T/F76Y/I96L/K127E/L162R/M171V/N62H/P40V/Q125Y/R42H/S133A/S149N/S66Y/V115G/V209L/W38E); HLA-DRB1*09:01 (Homo sapiens, UniProt P01903+P01911, A100R/A103E/D57H/D86V/F55Y/F60I/F76Y/I96F/K127E/L162R/M171V/P40D/Q125H/Q99R/R33Q/R42F/S133A/S66N/T210M/V115G/W38K/Y107V/Y59G/Y89S); HLA-DRB1*03:01 (Homo sapiens, UniProt P01903+P01911, A100K/A102G/A103R/A169T/F55Y/I96L/K41T/L162R/M171V/P40S/Q125H/Q178H/Q39Y/R42S/S66N/T106N/T262R/W38E/Y61H); HLA-DRB1*11:01 (Homo sapiens, UniProt P01903+P01911, A100R/A169T/A87E/I96F/K41T/L162R/M171V/P40S/Q125H/Q178H/Q39Y/Q99D/R42S/S66Y/T262R/V115G/W38E); HLA-DRB1*04:05 (Homo sapiens, UniProt P01903+P01911, A100R/A169T/D86S/F76Y/I96L/K127E/L162R/M171V/N62H/P40V/Q125Y/R42H/S133A/S149N/S66Y/V115G/V209L/W38E); HLA-DRB1*08:02 (Homo sapiens, UniProt P01903+P01911, A100R/A103L/A169T/F76Y/H45Y/I96F/K41T/L162R/M171V/P40S/Q125H/Q178H/Q39Y/Q99D/R218S/R42G/S66Y/V115G/W38E); HLA-DRB1*12:01 (Homo sapiens, UniProt P01903+P01911, A100R/A169T/D57E/D86V/F55L/H45Y/K41T/L162R/M171V/P40S/Q125H/Q178H/Q39Y/Q99D/R42G/S66L/T262R/V114A/V67L/W38E/Y59H/Y61H/Y89S); HLA-DRB1*13:02 (Homo sapiens, UniProt P01903+P01911, A100E/A169T/K41T/L162R/M171V/P40S/Q125H/Q178H/Q39Y/Q99D/R42S/S66N/T262R/V115G/W38E/Y61H); HLA-DRB1*07:01 (Homo sapiens, UniProt P01903+P01911, A100R/A102G/A103Q/D57E/D86V/E43K/F76Y/K127E/L162R/M171V/P40G/Q125H/Q99D/R33Q/R42Y/R54Q/S133A/S66F/T210M/V115G/Y107V/Y59L/Y89S); HLA-DRB1*01:01 (Homo sapiens, UniProt P01903+P01911, A100R/D57E/F55L/F60I/F76Y/I96L/L162R/M171V/P40L/Q125E/R42F/V115G/Y59C).

Common to all, as to assay: biochemical
Holding throughout (assay type): binding

Where two headings read alike, the source gives them in different places.

Sequence of HLA-DRB1*03:01 (P01903 26-254, other chains not shown): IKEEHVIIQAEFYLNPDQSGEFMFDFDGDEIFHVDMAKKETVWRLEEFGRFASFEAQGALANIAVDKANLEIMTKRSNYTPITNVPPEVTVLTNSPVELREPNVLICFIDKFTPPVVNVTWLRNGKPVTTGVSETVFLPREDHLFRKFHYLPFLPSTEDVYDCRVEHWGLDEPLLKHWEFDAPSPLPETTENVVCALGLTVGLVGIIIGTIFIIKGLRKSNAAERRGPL
Sequence of HLA-DRB1*11:01 (P01903 26-254 limits assumed, other chains not shown): as the sequence (P01903 26-254, other chains not shown) above
Sequence of HLA-DRB1*13:02 (P01903 26-254 limits assumed, other chains not shown): as the sequence (P01903 26-254, other chains not shown) above

With `CC[C@H](C)[C@H](NC(=O)[C@H](CCCCN)NC(=O)[C@@H](N)Cc1ccccc1)C(=O)N[C@@H](Cc1ccc(O)cc1)C(=O)N[C@@H](CO)C(=O)N[C@@H](CCCCN)C(=O)N[C@@H](Cc1c[nH]cn1)C(=O)N[C@H](C(=O)N1CCC[C@H]1C(=O)N[C@H](C(=O)N[C@@H](CC(N)=O)C(=O)N[C@@H](CC(C)C)C(=O)N[C@H](C(=O)N[C@@H](CCCNC(=N)N)C(=O)N[C@@H](CC(=O)O)C(=O)O)C(C)C)[C@@H](C)CC)[C@@H](C)O` [peptide 41], the IC50 against HLA-DRB1*15:01 is 611 nM; at HLA-DRB1*04:01 it was 5250 nM; on HLA-DRB1*09:01, 13 nM; against HLA-DRB1*03:01, more than 40000 nM; against HLA-DRB1*11:01 it was 229 nM; against HLA-DRB1*04:05 it was 16300 nM. In addition, the IC50 against HLA-DRB1*08:02 was 125 nM; against HLA-DRB1*12:01 it was 7180 nM; against HLA-DRB1*13:02, 9040 nM; against HLA-DRB1*07:01 it was 2.7 nM; against HLA-DRB1*01:01, 64 nM.

In the case of `CC(C)C[C@H](NC(=O)[C@H](C)NC(=O)[C@H](CC(C)C)NC(=O)[C@H](CC(C)C)NC(=O)[C@@H](NC(=O)[C@H](CCC(N)=O)NC(=O)[C@H](Cc1ccccc1)NC(=O)[C@H](CCCNC(=N)N)NC(=O)[C@@H](N)[C@@H](C)O)[C@@H](C)O)C(=O)N[C@@H](Cc1c[nH]cn1)C(=O)N[C@@H](CCCNC(=N)N)C(=O)N[C@@H](CO)C(=O)N[C@@H](Cc1ccc(O)cc1)C(=O)N[C@@H](CC(C)C)C(=O)N[C@H](C(=O)O)[C@@H](C)O` [peptide 48], the IC50 against HLA-DRB1*15:01 was determined as 5 nM; against HLA-DRB1*04:01, 337 nM; against HLA-DRB1*09:01, 11 nM; against HLA-DRB1*03:01, 13800 nM; against HLA-DRB1*11:01, 14 nM; against HLA-DRB1*04:05, 794 nM. In addition, the 50% inhibitory concentration (IC50) turned out to be 177 nM against HLA-DRB1*08:02; 18 nM against HLA-DRB1*12:01; 29900 nM against HLA-DRB1*13:02; 3.9 nM at HLA-DRB1*07:01; 38 nM against HLA-DRB1*01:01.

Consider `CC(C)[C@H](N)C(=O)N[C@@H](Cc1ccccc1)C(=O)N[C@@H](CC(N)=O)C(=O)N[C@@H](C)C(=O)N[C@H](C(=O)N[C@@H](CCCNC(=N)N)C(=O)N[C@@H](Cc1ccccc1)C(=O)N[C@@H](C)C(=O)N[C@@H](CO)C(=O)N[C@H](C(=O)N[C@@H](Cc1ccc(O)cc1)C(=O)N[C@@H](C)C(=O)N[C@@H](Cc1c[nH]c2ccccc12)C(=O)N[C@@H](CC(N)=O)C(=O)N[C@@H](CCCNC(=N)N)C(=O)O)C(C)C)[C@@H](C)O` [peptide 69], for which the 50% inhibitory concentration (IC50) at HLA-DRB1*15:01 was 12 nM; against HLA-DRB1*04:01, 853 nM; against HLA-DRB1*09:01 it was 321 nM; on HLA-DRB1*03:01, more than 40000 nM; on HLA-DRB1*11:01, 372 nM; on HLA-DRB1*04:05 it was 976 nM. Moreover, the IC50 at HLA-DRB1*08:02 is 3710 nM; at HLA-DRB1*12:01, 500 nM; against HLA-DRB1*13:02, more than 40000 nM; against HLA-DRB1*07:01, 2.7 nM; at HLA-DRB1*01:01 (read-out: in vitro binding capacity (IC50), DRB1*01:01), 1030 nM.

`CC(C)[C@H](NC(=O)CNC(=O)[C@H](Cc1ccc(O)cc1)NC(=O)[C@H](CS)NC(=O)[C@H](CCCCN)NC(=O)[C@H](Cc1ccccc1)NC(=O)[C@@H](NC(=O)[C@H](CO)NC(=O)[C@H](Cc1ccccc1)NC(=O)[C@H](CO)NC(=O)[C@H](C)NC(=O)[C@@H](N)CO)[C@@H](C)O)C(=O)N[C@@H](CO)C(=O)N1CCC[C@H]1C(=O)N[C@H](C(=O)O)[C@@H](C)O` [peptide 75]: the 50% inhibitory concentration (IC50) against HLA-DRB1*15:01 was 711 nM; against HLA-DRB1*04:01 it was 3330 nM; against HLA-DRB1*09:01, 117 nM; at HLA-DRB1*03:01, more than 40000 nM; at HLA-DRB1*11:01, 626 nM; against HLA-DRB1*04:05, 559 nM. Moreover, the IC50 was 4670 nM on HLA-DRB1*08:02; 11500 nM against HLA-DRB1*12:01; more than 40000 nM against HLA-DRB1*13:02; 519 nM on HLA-DRB1*07:01; 5290 nM against HLA-DRB1*01:01.

Take `CC(C)C[C@H](NC(=O)[C@H](CCCNC(=N)N)NC(=O)[C@H](Cc1ccc(O)cc1)NC(=O)[C@H](CC(C)C)NC(=O)[C@@H](N)Cc1ccc(O)cc1)C(=O)N[C@@H](Cc1ccccc1)C(=O)N[C@@H](CCCNC(=N)N)C(=O)N[C@@H](CCCCN)C(=O)N[C@@H](CO)C(=O)N[C@@H](CC(N)=O)C(=O)N[C@@H](CC(C)C)C(=O)N[C@@H](CCCCN)C(=O)N1CCC[C@H]1C(=O)N[C@@H](Cc1ccccc1)C(=O)N[C@@H](CCC(=O)O)C(=O)O` [peptide 91]: the IC50 is 1.7 nM against HLA-DRB1*15:01; 590 nM against HLA-DRB1*04:01; 13 nM on HLA-DRB1*09:01; more than 40000 nM against HLA-DRB1*03:01; 4.2 nM on HLA-DRB1*11:01; 543 nM on HLA-DRB1*04:05. Further, the half-maximal inhibitory concentration (IC50) came to 23 nM against HLA-DRB1*08:02; 323 nM against HLA-DRB1*12:01; 8570 nM against HLA-DRB1*13:02; 575 nM against HLA-DRB1*07:01; 7360 nM against HLA-DRB1*01:01.

For the compound `CC[C@H](C)[C@H](NC(=O)[C@H](Cc1ccccc1)NC(=O)[C@H](CO)NC(=O)[C@H](CCCNC(=N)N)NC(=O)[C@H](CCCCN)NC(=O)[C@H](CO)NC(=O)[C@@H]1CCCN1C(=O)[C@@H](N)CCCCN)C(=O)N[C@@H](CCC(=O)O)C(=O)N[C@@H](CC(=O)O)C(=O)N[C@@H](CC(C)C)C(=O)N[C@@H](CC(C)C)C(=O)N[C@@H](Cc1ccccc1)C(=O)N[C@@H](CC(N)=O)C(=O)N[C@@H](CCCCN)C(=O)O` [peptide 163], the IC50 against HLA-DRB1*15:01 was found to be 6810 nM; at HLA-DRB1*04:01, 451 nM; at HLA-DRB1*09:01, 519 nM; against HLA-DRB1*03:01, 1500 nM; at HLA-DRB1*11:01, 301 nM; on HLA-DRB1*04:05 it was 3440 nM. Also, the IC50 at HLA-DRB1*08:02 is 3410 nM; against HLA-DRB1*12:01, 3980 nM; at HLA-DRB1*13:02 it was more than 40000 nM; against HLA-DRB1*07:01, 1930 nM; against HLA-DRB1*01:01 it was more than 40000 nM.

Consider `CC[C@H](C)[C@H](NC(=O)[C@H](Cc1ccccc1)NC(=O)[C@@H](N)CO)C(=O)N[C@@H](CCC(=O)O)C(=O)N[C@@H](CC(=O)O)C(=O)N[C@@H](CC(C)C)C(=O)N[C@@H](CC(C)C)C(=O)N[C@@H](Cc1ccccc1)C(=O)N[C@@H](CC(N)=O)C(=O)N[C@@H](CCCCN)C(=O)N[C@H](C(=O)N[C@H](C(=O)N[C@@H](CC(C)C)C(=O)N[C@@H](C)C(=O)N[C@@H](CC(=O)O)C(=O)O)[C@@H](C)O)C(C)C` [peptide 164], for which the IC50 against HLA-DRB1*15:01 came out at 3170 nM; against HLA-DRB1*04:01, 1100 nM; at HLA-DRB1*09:01, 1300 nM; at HLA-DRB1*03:01, 3230 nM; at HLA-DRB1*11:01, 13200 nM; on HLA-DRB1*04:05, 2170 nM. In addition, the half-inhibitory concentration (IC50) against HLA-DRB1*08:02 was determined as 15200 nM; against HLA-DRB1*12:01, 537 nM; on HLA-DRB1*13:02, 174 nM; against HLA-DRB1*07:01 it was 3960 nM; against HLA-DRB1*01:01, 4350 nM.

As for `CC[C@H](C)[C@H](N)C(=O)N1CCC[C@H]1C(=O)N[C@@H](Cc1ccccc1)C(=O)N[C@@H](C)C(=O)N[C@@H](CCSC)C(=O)N[C@@H](CCC(N)=O)C(=O)N[C@@H](CCSC)C(=O)N[C@@H](C)C(=O)N[C@@H](Cc1ccc(O)cc1)C(=O)N[C@@H](CCCNC(=N)N)C(=O)N[C@@H](Cc1ccccc1)C(=O)N[C@@H](CC(N)=O)C(=O)NCC(=O)N[C@H](C(=O)NCC(=O)O)[C@@H](C)CC` [peptide 180], the IC50 against HLA-DRB1*15:01 stood at 192 nM; against HLA-DRB1*04:01, 443 nM; at HLA-DRB1*09:01 it was 7.9 nM; on HLA-DRB1*03:01, 11700 nM; against HLA-DRB1*11:01, 23 nM; on HLA-DRB1*04:05, 1610 nM. The IC50 worked out at 553 nM on HLA-DRB1*08:02; 2.2 nM against HLA-DRB1*12:01; 13700 nM against HLA-DRB1*13:02; 25 nM against HLA-DRB1*07:01; 58 nM at HLA-DRB1*01:01.

As a reminder, the IC50 is the concentration that gives 50% inhibition.
